IC50 data for 31 compounds are collected here from patent publication US8658646B2, “Pyrrolopyrazine kinase inhibitors” (Hoffmann-LaRoche Inc., priority 2011, dated 2014).

Structures are written as SMILES.

The target of this experiment is T1, recombinant human SYK360-635 (Homo sapiens, UniProt P43405).
T1 construct: made in house
As to the kind of experiment: Determination of IC50 of Spleen Tyrosine Kinase (SYK) inhibition, 33P ATP filtration assay. Type of experiment: biochemical. Conditions: SYK aa 360-635 0.5 nM; ATP 20 μM, peptide 5 μM, 0.1% BSA; read-out: SYK_ENZYME_FILTRATION/v1, BSA.
Protocol: All concentrations were final in the reaction mixture and all incubations were carried at room temperature. […] SYK Assay Information Determination of IC50 of Spleen Tyrosine Kinase (SYK) Inhibition:
SYK kinase assay is a standard kinase assay adapted to a 96 well plate format. This assay is performed in 96-well format for IC50 determination with 8 samples which represented 10 half log dilutions and a 40 μL reaction volume. The assay measures the incorporation of radiolabeled ^33P γATP into an N-terminally biotinylated peptide substrate, derived from naturally occurring phosphoacceptor consensus sequence (Biotin-11aa DY*E). […] Experimental Method:
DMSO and the mixture was incubated for 10 min at RT.
The kinase reaction was initiated by the addition of 10 μL 4× substrate cocktail containing the DYE peptide substrate [0 or 5 μM], ATP [20 μM] and ^33PγATP [2 μCi/r×n]. After incubation at 30° C. for 15 min, the reaction was terminated by the transfer of 25 μL pf the reaction sample to a 96 well 0.65 μm Millipore MADVNOB membrane/plate containing 200 μL 5 mM EDTA and 20% Streptavidine coated beads in PBS.
The unbound radionucleotides were washed under vacuum with 3×250 μL 2M NaCl; 2×250 μL 2M NaCl+1% phosphoric acid; 1×250 μL H2O. After the last wash membrane/plates were transferred to an adaptor plate, heat dried for 15 min at 60° C., and 50 μL scintillation cocktail was added to each well and 4 h later the amount of radioactivity was counted in a top counter.
As for `Cn1nc(-c2cnc3[nH]cc(C(=O)N[C@@H]4CCC[C@@H](N)C4)c3n2)c2ccc(Cl)cc21` (relative stereo) [Example I-276, 2-(6-Chloro-1-methyl-1H-indazol-3-yl)-5H-pyrrolo[2,3-b]pyrazine-7-carboxylic acid (trans-3-amino-cyclohexyl)-amide], the IC50 turned out to be 16.4 nM.
In the case of `Cn1nc(-c2cnc3[nH]cc(C(=O)N[C@@H]4CCC[C@H](N)C4)c3n2)c2ccc(Cl)cc21` (relative stereo) [Example I-277, 2-(6-Chloro-1-methyl-1H-indazol-3-yl)-5H-pyrrolo[2,3-b]pyrazine-7-carboxylic acid (cis-3-amino-cyclohexyl)-amide], the IC50 came to 40 nM.
Then `C[C@@H](NC(=O)c1c[nH]c2ncc(-c3nn(C)c4cc(C#N)ccc34)nc12)C(=O)N1CC(C#N)C1` [Example I-22, 2-(6-Cyano-1-methyl-1H-indazol-3-yl)-5H-pyrrolo[2,3-b]pyrazine-7-carboxylic acid [(R)-2-(3-cyano-azetidin-1-yl)-1-methyl-2-oxo-ethyl]-amide], with 45.7 nM; and `C[C@@H](NC(=O)c1c[nH]c2ncc(-c3cn(C)c4cc(Cl)ccc34)nc12)C(=O)N1CC(C#N)C1` [Example I-29, 2-(6-Chloro-1-methyl-1H-indol-3-yl)-5H-pyrrolo[2,3-b]pyrazine-7-carboxylic acid [(R)-2-(3-cyano-azetidin-1-yl)-1-methyl-2-oxo-ethyl]-amide], with 4.1 nM; and `CC(C)NC(=O)c1c[nH]c2ncc(-c3nn(C)c4ccc(O)cc34)nc12` [Example I-65, 2-(5-Hydroxy-1-methyl-1H-indazol-3-yl)-5H-pyrrolo[2,3-b]pyrazine-7-carboxylic acid isopropylamide], with 5.8 nM.
For `COCC(COC)NC(=O)c1c[nH]c2ncc(-c3nn(C)c4cc(Cl)ccc34)nc12` [Example I-166, 2-(6-Chloro-1-methyl-1H-indazol-3-yl)-5H-pyrrolo[2,3-b]pyrazine-7-carboxylic acid (2-methoxy-1-methoxymethyl-ethyl)-amide], the IC50 was determined as 106 nM.
`CC(CC1CC1)NC(=O)c1c[nH]c2ncc(-c3nn(C)c4cc(F)ccc34)nc12` (stereo not shown) [Example I-186, 2-(6-Fluoro-1-methyl-1H-indazol-3-yl)-5H-pyrrolo[2,3-b]pyrazine-7-carboxylic acid (2-cyclopropyl-1-methyl-ethyl)-amide]: the IC50 was 129 nM.
Then `COC[C@H](C)NC(=O)c1c[nH]c2ncc(-c3nn(C)c4ccc(C5CC5)cc34)nc12` [Example I-194, 2-(5-Cyclopropyl-1-methyl-1H-indazol-3-yl)-5H-pyrrolo[2,3-b]pyrazine-7-carboxylic acid ((S)-2-methoxy-1-methyl-ethyl)-amide], with 11.9 nM; and `CC(C)NC(=O)c1c[nH]c2ncc(-c3nn(C)c4ccc(C5CC5)cc34)nc12` [Example I-195, 2-(5-Cyclopropyl-1-methyl-1H-indazol-3-yl)-5H-pyrrolo[2,3-b]pyrazine-7-carboxylic acid isopropylamide], with 12 nM; and `Cn1nc(-c2cnc3[nH]cc(C(=O)NC(C)(C)CO)c3n2)c2cc(C3CC3)ccc21` [Example I-196, 2-(5-Cyclopropyl-1-methyl-1H-indazol-3-yl)-5H-pyrrolo[2,3-b]pyrazine-7-carboxylic acid (2-hydroxy-1,1-dimethyl-ethyl)-amide], with 8 nM.
With `Cn1nc(-c2cnc3[nH]cc(C(=O)NC(C)(C)C)c3n2)c2cc(C3CC3)ccc21` [Example I-197, 2-(5-Cyclopropyl-1-methyl-1H-indazol-3-yl)-5H-pyrrolo[2,3-b]pyrazine-7-carboxylic acid tert-butylamide], the IC50 stood at 4.79 nM.
As for `CC(C)(C)NC(=O)c1c[nH]c2ncc(-c3nn(CC(=O)N4CCOCC4)c4cc(F)ccc34)nc12` [Example I-251, 2-[6-Fluoro-1-(2-morpholin-4-yl-2-oxo-ethyl)-1H-indazol-3-yl]-5H-pyrrolo[2,3-b]pyrazine-7-carboxylic acid tert-butylamide], the figure is 14.3 nM; as for `Cn1nc(-c2cnc3[nH]cc(C(=O)NC4(C(C)(C)O)CCC4)c3n2)c2ccc(F)cc21` [Example I-255, 2-(6-Fluoro-1-methyl-1H-indazol-3-yl)-5H-pyrrolo[2,3-b]pyrazine-7-carboxylic acid [1-(1-hydroxy-1-methyl-ethyl)-cyclobutyl]-amide], 607 nM.
Then `Cn1nc(-c2cnc3[nH]cc(C(=O)NC4(CO)CCC4)c3n2)c2ccc(F)cc21` [Example I-256, 2-(6-Fluoro-1-methyl-1H-indazol-3-yl)-5H-pyrrolo[2,3-b]pyrazine-7-carboxylic acid (1-hydroxymethyl-cyclobutyl)-amide], with 23.5 nM; and `CC(C)(C)NC(=O)c1c[nH]c2ncc(-c3nn(C4CCNC4)c4cc(F)ccc34)nc12` (stereo not shown) [Example I-258, 2-(6-Fluoro-1-pyrrolidin-3-yl-1H-indazol-3-yl)-5H-pyrrolo[2,3-b]pyrazine-7-carboxylic acid tert-butylamide], with 24.6 nM; and `Cn1nc(-c2cnc3[nH]cc(C(=O)NC(C)(C)C)c3n2)c2ncccc21` [Example I-259, 2-(1-Methyl-1H-pyrazolo[4,3-b]pyridin-3-yl)-5H-pyrrolo[2,3-b]pyrazine-7-carboxylic acid tert-butylamide], with 42.9 nM.
Then `Cn1nc(-c2cnc3[nH]cc(C(=O)NC(C)(C)C)c3n2)c2cc(C#N)ccc21` [Example I-260, 2-(5-Cyano-1-methyl-1H-indazol-3-yl)-5H-pyrrolo[2,3-b]pyrazine-7-carboxylic acid tert-butylamide], with 6.85 nM; and `CC(C)(C)NC(=O)c1c[nH]c2ncc(-c3nn(C4CCNCC4)c4ccc(OC(F)F)cc34)nc12` [Example I-261, 2-(5-Difluoromethoxy-1-piperidin-4-yl-1H-indazol-3-yl)-5H-pyrrolo[2,3-b]pyrazine-7-carboxylic acid tert-butylamide], with 1.83 nM; and `CC(C)(C)NC(=O)c1c[nH]c2ncc(-c3nn(CCCC(=O)O)c4ccc(OC(F)F)cc34)nc12` [Example I-262, 4-[3-(7-tert-Butylcarbamoyl-5H-pyrrolo[2,3-b]pyrazin-2-yl)-5-difluoromethoxy-indazol-1-yl]-butyric acid], with 2.75 nM.
For `CN1CCC(n2nc(-c3cnc4[nH]cc(C(=O)NC(C)(C)C)c4n3)c3cc(OC(F)F)ccc32)CC1` [Example I-263, 2-[5-Difluoromethoxy-1-(1-methyl-piperidin-4-yl)-1H-indazol-3-yl]-5H-pyrrolo[2,3-b]pyrazine-7-carboxylic acid tert-butylamide], the IC50 is 14.4 nM.
Turning to `CC(C)(C)NC(=O)c1c[nH]c2ncc(-c3nn(Cc4cccnc4)c4ccc(OC(F)F)cc34)nc12` [Example I-264, 2-(5-Difluoromethoxy-1-pyridin-3-ylmethyl-1H-indazol-3-yl)-5H-pyrrolo[2,3-b]pyrazine-7-carboxylic acid tert-butylamide], the IC50 is 4.67 nM.
As for `CC(C)(C)NC(=O)c1c[nH]c2ncc(-c3nn(CC4CCNC4)c4ccc(OC(F)F)cc34)nc12` (stereo not shown) [Example I-265, 2-(5-Difluoromethoxy-1-pyrrolidin-3-ylmethyl-1H-indazol-3-yl)-5H-pyrrolo[2,3-b]pyrazine-7-carboxylic acid tert-butylamide], the figure is 8.62 nM; as for `NC1CCC(NC(=O)c2c[nH]c3ncc(-c4nn(C5CCNCC5)c5cc(F)ccc45)nc23)C1` (stereo not shown) [Example I-267, 2-(6-Fluoro-1-piperidin-4-yl-1H-indazol-3-yl)-5H-pyrrolo[2,3-b]pyrazine-7-carboxylic acid (3-amino-cyclopentyl)-amide], 30.3 nM; as for `CC(C)NC(=O)c1c[nH]c2ncc(-c3nn(C)c4ccc(C(C)O)cc34)nc12` (stereo not shown) [Example I-269, 2-[5-(1-Hydroxy-ethyl)-1-methyl-1H-indazol-3-yl]-5H-pyrrolo[2,3-b]pyrazine-7-carboxylic acid isopropylamide], 22.1 nM.
As for `Cn1nc(-c2cnc3[nH]cc(C(=O)NC(C)(C)C)c3n2)c2ccc(S(C)(=O)=O)cc21` [Example I-270, 2-(6-Methanesulfonyl-1-methyl-1H-indazol-3-yl)-5H-pyrrolo[2,3-b]pyrazine-7-carboxylic acid tert-butylamide], the figure is 16.4 nM.
In the case of `Cn1nc(-c2cnc3[nH]cc(C(=O)N[C@H]4C[C@@H](N)C4)c3n2)c2ccc(F)cc21` [Example I-271, 2-(6-Fluoro-1-methyl-1H-indazol-3-yl)-5H-pyrrolo[2,3-b]pyrazine-7-carboxylic acid (cis-3-amino-cyclobutyl)-amide], the IC50 stood at 30.3 nM.
Regarding `Cn1nc(-c2cnc3[nH]cc(C(=O)NC(C)(C)C)c3n2)c2c1CCCCC2` [Example I-272, 2-(1-Methyl-1,4,5,6,7,8-hexahydro-cycloheptapyrazol-3-yl)-5H-pyrrolo[2,3-b]pyrazine-7-carboxylic acid tert-butylamide], the IC50 was found to be 75.3 nM.
Then `Cn1cc(Cn2nc(-c3cnc4[nH]cc(C(=O)NC(C)(C)C)c4n3)c3cc(OC(F)F)ccc32)cn1` [Example I-274, 2-[5-Difluoromethoxy-1-(1-methyl-1H-pyrazol-4-ylmethyl)-1H-indazol-3-yl]-5H-pyrrolo[2,3-b]pyrazine-7-carboxylic acid tert-butylamide], with 2.5 nM; and `CC(C)NC(=O)c1c[nH]c2ncc(-c3nn(C)c4c3CCC(C)(C)C4)nc12` [Example I-279, 2-(1,6,6-Trimethyl-4,5,6,7-tetrahydro-1H-indazol-3-yl)-5H-pyrrolo[2,3-b]pyrazine-7-carboxylic acid isopropylamide], with 277 nM; and `COc1ccc2c(c1)c(-c1cnc3[nH]cc(C(=O)NC(C)(C)C)c3n1)nn2C` [Example I-287, 2-(5-Methoxy-1-methyl-1H-indazol-3-yl)-5H-pyrrolo[2,3-b]pyrazine-7-carboxylic acid tert-butylamide], with 3.22 nM.
As for `COc1ccc2c(c1)c(-c1cnc3[nH]cc(C(=O)NC(C)(C)CO)c3n1)nn2C` [Example I-288, 2-(5-Methoxy-1-methyl-1H-indazol-3-yl)-5H-pyrrolo[2,3-b]pyrazine-7-carboxylic acid (2-hydroxy-1,1-dimethyl-ethyl)-amide], the figure is 7.95 nM.
